Data taken from patent US8895585B2, “Nicotinamide derivative or salt thereof” (FUJIFILM Corporation, priority 2010, dated 2014).

Each compound was assayed against T1, glutathione S-transferase (GST)-fused full-length human Syk protein (Homo sapiens, UniProt P43405) (assay: Syk enzyme assay). Conditions: Syk enzyme assay, Test Example 1; read-out: IC50 of Syk-inhibitory activity.
T1 construct: (GST)-fused full-length human Syk protein; GST (glutathione S-transferase); purchased Carna Biosciences
Assay type: biochemical
In short: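 GST-tagged full-length human Syk (baculovirus) preincubated with compound 15 min at room temperature (pH 7.0, 10 mM MgCl2), then reacted 40 min with 0.4 μM biotinylated peptide substrate and 27 μM ATP (final). Phosphorylation read by HTRF (615/665 nm) after EDTA stop; IC50 reported.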

IC50	Compound
< 10 nM	CN(C)C(=O)Cn1ccc2c(Nc3nc(N[C@@H]4CCCC[C@@H]4N)c(F)cc3C(N)=O)ccnc21 [Example 029-004]
< 10 nM	NC(=O)c1cc(F)c(NC2CCCC[C@@H]2N)nc1Nc1ccnc2c1ccn2CC(=O)N1CCCCC1 (stereo partly drawn) [Example 029-005]
< 10 nM	NC(=O)c1cc(F)c(NC2CCCC[C@@H]2N)nc1Nc1ccnc2c1ccn2CC(=O)N1CCOCC1 (stereo partly drawn) [Example 029-006]
10 to 50 nM	CNC(=O)c1cc2c(Nc3nc(NC4CCCCC4N)c(F)cc3C(N)=O)ccnc2n1C (stereo not drawn) [Example 029-008]
100 to 1000 nM	CN(C)C(=O)c1cc2c(Nc3nc(N[C@@H]4CCCC[C@@H]4N)c(F)cc3C(N)=O)ccnc2n1C [Example 029-009]
100 to 1000 nM	Cn1c(C(=O)N2CCOCC2)cc2c(Nc3nc(NC4CCCC[C@@H]4N)c(F)cc3C(N)=O)ccnc21 (stereo partly drawn) [Example 029-010]
100 to 1000 nM	Cn1c(C(=O)NCCN2CCOCC2)cc2c(Nc3nc(N[C@@H]4CCCC[C@@H]4N)c(F)cc3C(N)=O)ccnc21 [Example 029-011]
< 10 nM	NC(=O)c1cc(Nc2nc(N[C@@H]3CCCC[C@@H]3N)c(F)cc2C(N)=O)ccn1 [Example 029-012]
10 to 50 nM	CNC(=O)c1cc(Nc2nc(NC3CCCC[C@@H]3N)c(F)cc2C(N)=O)ccn1 (stereo partly drawn) [Example 029-013]
50 to 100 nM	CN(C)C(=O)c1cc(Nc2nc(NC3CCCC[C@@H]3N)c(F)cc2C(N)=O)ccn1 (stereo partly drawn) [Example 029-014]
100 to 1000 nM	NCCNc1nc(Nc2cccc(C(=O)N3CCCCC3)c2)c(C(N)=O)cc1F [Example 031-002]
100 to 1000 nM	COc1cc(Nc2nc(NC(C)(C)C(N)=O)c(F)cc2C(N)=O)cc(OC)c1 [Example 033-002]
100 to 1000 nM	COc1cc(Nc2nc(NCCC(N)=O)c(F)cc2C(N)=O)cc(OC)c1 [Example 033-003]
100 to 1000 nM	COc1cc(Nc2nc(N[C@@H](C(N)=O)C(C)(C)C)c(F)cc2C(N)=O)cc(OC)c1 [Example 033-005]
100 to 1000 nM	COc1cc(Nc2nc(NC3CCCC3C(N)=O)c(F)cc2C(N)=O)cc(OC)c1 (stereo not drawn) [Example 033-007]
< 10 nM	Cc1cc(C)cc(Nc2nc(NCCN)c(Cl)cc2C(N)=O)c1 [Example 035-008]
50 to 100 nM	NC[C@@H](Nc1nc(Nc2ccc3ncccc3c2)c(C(N)=O)cc1F)c1ccccn1 [Example 39-5, (R)-6-((2-amino-1-(pyridin-2-yl)ethyl)amino)-5-fluoro-2-((quinolin-6-yl)amino)nicotinamide]
50 to 100 nM	Cc1ccc(S(=O)(=O)Nc2cccc3cc(Nc4nc(NC5CCCC[C@@H]5N)c(F)cc4C(N)=O)cnc23)cc1 (stereo partly drawn) [Example 41-4, 6-(cis-2-aminocyclohexylamino)-5-fluoro-2-((8-(4-methylphenylsulphonamide)quinolin-3-yl)amino)nicotinamide]
100 to 1000 nM	NC(=O)c1cc(F)c(NC2CCCC[C@@H]2N)nc1Nc1cnc2c(NS(=O)(=O)c3ccc(C(F)(F)F)cc3)cccc2c1 (stereo partly drawn) [Example 41-7, 6-(cis-2-aminocyclohexylamino)-5-fluoro-2-((8-(4-(trifluoromethyl)phenylsulphonamide)-quinolin-3-yl)amino)nicotinamide]
10 to 50 nM	NC(=O)c1cc(F)c(NC2CCCC[C@@H]2N)nc1Nc1cnc2c(NS(=O)(=O)Cc3ccccc3)cccc2c1 (stereo partly drawn) [Example 41-9, 6-(cis-2-aminocyclohexylamino)-5-fluoro-2-((8-(phenylmethylsulphonamide)quinolin-3-yl)amino)nicotinamide]
100 to 1000 nM	Cc1cc(Nc2nc(N[C@H](CCCN)[C@H](C)N)c(F)cc2C(N)=O)cnc1C [Example 045-000]
100 to 1000 nM	Cc1cc(Nc2nc(N[C@H](CCCN(C)C)[C@H](C)N)c(F)cc2C(N)=O)cnc1C [Example 046-000]

Same assay, conditions: read-out: Syk-inhibitory activity (IC50)

IC50	Compound
≤ 1000 nM	NCCNc1nc(Nc2cccc(C(=O)Nc3ccccc3)c2)c(C(N)=O)cc1F [Example 30, 6-(2-aminoethylamino)-2-(3-(anilinocarbonyl)phenylamino)-5-fluoronicotinamide]
≤ 1000 nM	NCCNc1nc(Nc2cccc(C(=O)NC3CCCCC3)c2)c(C(N)=O)cc1F [Example 31-3, 6-((2-aminoethyl)amino)-2-((3-(cyclohexylaminocarbonyl)phenyl)amino)-5-fluoronicotinamide]
≤ 1000 nM	COc1cc(Nc2nc(NC(C(N)=O)C(C)C)c(F)cc2C(N)=O)cc(OC)c1 (stereo not drawn) [Example 32, 6-(1-aminocarbonyl-2-methylpropylamino)-2-(3,5-dimethoxyphenylamino)-5-fluoro nicotinamide]
≤ 1000 nM	COc1cc(Nc2nc(NC(C)C(N)=O)c(F)cc2C(N)=O)cc(OC)c1 (stereo not drawn) [Example 33-1, 6-((2-amino-1-methyl-2-oxoethyl)amino)-2-(3,5-dimethoxyphenylamino)-5-fluoronicotinamide]

What follows are compounds tested on THP-1 cells (assay: TNFα generation assay). Conditions: Homo sapiens, THP-1, 7 h, IFN-γ-differentiated THP-1 cells on human IgG-coated plate, cultured 7 hours; read-out: TNFα generation inhibitory activity (IC50).
Assay type: cell-based, human
Protocol: THP-1 cells (2×10^5 cells/ml), which were human monocytoid cells, were cultured in the presence of 10 ng/ml IFN-γ (Roche) for 2 days, so that the cells were induced to differentiate into macrophage-like cells. The differentiation-induced THP-1 cells were recovered, and the cells (1×10^6 cell/ml) were then allowed to react with a predetermined concentration of test compound at room temperature for 30 minutes. On the other hand, 100 μl of human IgG (10 μg/ml, SIGMA-ALDRICH) diluted with PBS was added to a 96-well plate, and it was then incubated at room temperature overnight. Thereafter, the resultant was washed with PBS twice to produce a human IgG-coated plate. Subsequently, a cell solution that contained a compound was inoculated on the human IgG-coated plate (5×10^4 cells/well), and it was then cultured for 7 hours. Thereafter, the cultured solution was recovered, and the amount of TNFα secreted into the culture solution was then measured by the ELISA method (Roche/R & D Systems) or the AlphaLISA method (PerkinElmer).

IC50	Compound
≤ 200 nM	NC(=O)c1cc(F)c(N[C@@H]2CCCC[C@@H]2N)nc1Nc1cncc(-c2ccccc2)c1 (relative stereo) [Example 2-1, 6-(cis-2-aminocyclohexylamino)-5-fluoro-2-((5-phenylpyridin-3-yl)amino)nicotinamide]
≤ 200 nM	Cc1cccc(Nc2nc(N[C@@H]3CCCC[C@@H]3N)c(F)cc2C(N)=O)c1 (relative stereo) [Example 2-3, 6-(cis-2-aminocyclohexylamino)-5-fluoro-2-((3-methyl-phenyl)amino)nicotinamide]
≤ 200 nM	NC(=O)c1cc(F)c(N[C@@H]2CCCC[C@@H]2N)nc1Nc1ccc(N2CCOCC2)cc1 (relative stereo) [Example 2-5, 6-(cis-2-aminocyclohexylamino)-5-fluoro-2-((4-(morpholin-4-yl)phenyl)amino)nicotinamide]
≤ 200 nM	COc1cc(Nc2nc(N[C@@H]3CCCC[C@@H]3N)c(F)cc2C(N)=O)cc(OC)c1OC (relative stereo) [Example 2-7, 6-(cis-2-aminocyclohexylamino)-5-fluoro-2-((3,4,5-trimethoxy-phenyl)amino)nicotinamide]
≤ 200 nM	NC(=O)c1cc(F)c(N[C@@H]2CCCC[C@@H]2N)nc1Nc1ccc(N2CCOCC2)nc1 (relative stereo) [Example 2-20, 6-(cis-2-aminocyclohexylamino)-5-fluoro-2-((6-(morpholin-4-yl)pyridin-3-yl)amino)nicotinamide]
≤ 200 nM	NC(=O)c1cc(F)c(N[C@@H]2CCCC[C@@H]2N)nc1Nc1cnc2c(ccn2CCN2CCCC2)c1 (relative stereo) [Example 4-22, 6-(cis-2-aminocyclohexylamino)-5-fluoro-2-((1-(2-(pyrrolidin-1-yl)ethyl)-1H-pyrrolo[2,3-b]pyridin-5-yl)amino)nicotinamide]
≤ 200 nM	NC(=O)c1cc(F)c(N[C@@H]2CCCC[C@@H]2N)nc1Nc1ccnc2c1ccn2CCN1CCCC1 (relative stereo) [Example 4-23, 6-(cis-2-aminocyclohexylamino)-5-fluoro-2-((1-(2-(pyrrolidin-1-yl)ethyl)-1H-pyrrolo[2,3-b]pyridin-4-yl)amino)nicotinamide]
≤ 200 nM	NC(=O)c1cc(F)c(N[C@@H]2CCCC[C@@H]2N)nc1Nc1ccnc2c1ccn2CCN1CCOCC1 (relative stereo) [Example 4-25, 6-(cis-2-aminocyclohexylamino)-5-fluoro-2-((1-(2-(morpholin-4-yl)ethyl)-1H-pyrrolo[2,3-b]pyridin-4-yl)amino)nicotinamide]
≤ 200 nM	NC(=O)c1cc(F)c(N[C@@H]2CCCC[C@@H]2N)nc1Nc1cnc2ncsc2c1 (relative stereo) [Example 4-26, 6-(cis-2-aminocyclohexylamino)-5-fluoro-2-(([1,3]thiazolo[4,5-b]pyridin-6-yl)amino)nicotinamide]
≤ 200 nM	CCN(CC)CCn1ccc2c(Nc3nc(N[C@@H]4CCCC[C@@H]4N)c(F)cc3C(N)=O)ccnc21 (relative stereo) [Example 4-28, 6-(cis-2-aminocyclohexylamino)-2-((1-(2-(diethylamino)ethyl)-1H-pyrrolo[2,3-b]pyridin-4-yl)amino)-5-fluoronicotinamide]
≤ 200 nM	NC(=O)c1cc(F)c(N[C@@H]2CCCC[C@@H]2N)nc1Nc1ccnc2c1ccn2CC1CC1 (relative stereo) [Example 4-40, 6-(cis-2-aminocyclohexylamino)-2-((1-(cyclopropylmethyl)-1H-pyrrolo[2,3-b]pyridin-4-yl)amino)-5-fluoronicotinamide]
≤ 200 nM	NC(=O)c1cc(F)c(N[C@@H]2CCCC[C@@H]2N)nc1Nc1cncc(-n2nccn2)c1 (relative stereo) [Example 4-42, 6-(cis-2-aminocyclohexylamino)-5-fluoro-2-((5-(2H-1,2,3-triazol-2-yl)pyridin-3-yl)amino)nicotinamide]
≤ 200 nM	NC(=O)Nc1cccc2cc(Nc3nc(N[C@@H]4CCCC[C@@H]4N)c(F)cc3C(N)=O)cnc12 (relative stereo) [Example 4-64, 2-((8-(aminocarbonyl)amino-quinolin-3-yl)amino)-6-(cis-2-amino-cyclohexylamino)-5-fluoronicotinamide]
